{"source": "patent US6531162B1", "about": "“Adrenergically-mediated weight loss product” (priority 2002, dated 2003)", "origin": "cited, not measured here", "key": {"COMT enzyme": {"system": "COMT enzyme", "conditions": "in-vitro"}, "beta-3 receptors [1]": {"target": "T1, beta-3 receptors (Homo sapiens, UniProt P13945)", "T1 sequence (P13945 whole entry)": "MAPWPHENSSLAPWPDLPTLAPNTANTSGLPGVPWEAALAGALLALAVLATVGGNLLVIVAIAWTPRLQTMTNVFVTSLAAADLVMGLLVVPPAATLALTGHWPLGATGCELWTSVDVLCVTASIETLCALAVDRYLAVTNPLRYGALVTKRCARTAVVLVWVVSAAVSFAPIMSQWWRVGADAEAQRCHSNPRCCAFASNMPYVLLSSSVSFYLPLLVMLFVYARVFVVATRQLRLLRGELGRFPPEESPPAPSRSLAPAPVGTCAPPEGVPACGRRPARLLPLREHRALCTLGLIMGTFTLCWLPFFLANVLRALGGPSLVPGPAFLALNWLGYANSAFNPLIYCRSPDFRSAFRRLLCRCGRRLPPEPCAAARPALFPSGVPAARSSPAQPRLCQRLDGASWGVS", "conditions": "using beta blocking agents"}, "beta-3 receptors [2]": {"target": "T1, beta-3 receptors", "conditions": "in-vitro studies"}, "humans": {"system": "humans", "conditions": "after oral dosing"}, "[3]": {"conditions": "single doses as high as 21.6 mg or daily cumulative doses as high as 43.2 mg"}, "[4]": {"conditions": "green tea versus equivalent dose (50 mg) of caffeine"}}, "note": "“Also recorded” adds a separate entry of the source."}
{"smiles": "O=C(O[C@@H]1Cc2c(O)cc(O)cc2O[C@@H]1c1cc(O)c(O)c(O)c1)c1cc(O)c(O)c(O)c1", "note": "[EGCG]", "values": [{"measurement": "inhibition of the COMT enzyme", "setting": "COMT enzyme", "value": "inhibit the COMT enzyme"}]}
{"smiles": "CN[C@@H](C)[C@H](O)c1ccccc1", "note": "[ephedrine]", "values": [{"measurement": "share of ephedrine-induced thermogenesis accounted for by beta-3 agonist activity", "setting": "beta-3 receptors [1]", "value": "at least 40%"}]}
{"smiles": "NCC(O)c1ccc(O)cc1", "note": "(stereo not shown) [Octopamine]", "values": [{"measurement": "beta-3 agonist activity and selectivity", "setting": "beta-3 receptors [2]", "value": "potent selective beta-3 agonist; also recorded: selective for this receptor"}]}
{"smiles": "COC(=O)[C@@H]1[C@H]2C[C@H]3c4[nH]c5ccccc5c4CCN3C[C@@H]2CC[C@@H]1O", "note": "[Yohimbine]", "values": [{"measurement": "lipolysis in humans", "setting": "humans", "value": "capable of increasing lipolysis"}, {"measurement": "impact on blood pressure or heart rate", "setting": "[3]", "value": "no significant impact"}, {"measurement": "tolerability", "setting": "[3]", "value": "well tolerated"}]}
{"smiles": "COc1c(O)cc2c(c1O)[C@@H]1O[C@H](CO)[C@@H](O)[C@H](O)[C@H]1OC2=O", "note": "[Bergenin]", "values": [{"measurement": "effect on lipogenic actions of insulin", "setting": "fat cells", "value": "oppose the lipogenic (fat building) actions of insulin"}, {"measurement": "direct stimulation of lipolysis / adrenergic activity", "setting": "fat cells; in-vitro, compound alone", "value": "does not directly stimulate lipolysis; also recorded: no direct adrenergic activity"}, {"measurement": "enhancement of lipolysis induced by norepinephrine", "setting": "fat cells; in-vitro, with norepinephrine", "value": "markedly enhances lipolysis; also recorded: increase the lipolytic activity of norepinephrine"}]}
{"smiles": "Cn1c(=O)c2c(ncn2C)n(C)c1=O", "note": "[caffeine]", "values": [{"measurement": "24 hour energy expenditure", "setting": "[4]", "value": "no noticeable effect"}]}
